Tests used:
PPARδ = molecular target: T1, PPARδ (Homo sapiens, UniProt Q03181); assay: Gal4-transactivation luciferase assay in HEK293A cells, PPARδ LBD; assay type: cell-based
T1 construct: pcDNA5-GAL4-PPAR LBD, pG5-luc, and Rluc vector (as control) were transfected into HEK293A cells; expressed in transfected cells; host or cells: HEK293A
T1 sequence (Q03181 211-439 limits assumed): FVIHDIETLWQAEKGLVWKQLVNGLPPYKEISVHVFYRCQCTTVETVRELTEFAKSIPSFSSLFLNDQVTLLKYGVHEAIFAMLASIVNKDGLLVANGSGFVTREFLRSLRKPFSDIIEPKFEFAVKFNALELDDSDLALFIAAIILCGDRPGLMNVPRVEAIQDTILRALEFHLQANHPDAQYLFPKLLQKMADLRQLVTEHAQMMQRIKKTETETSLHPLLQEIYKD
Experimental: HEK293A cells were transfected with the GAL4-reporter plasmids and pGL4.74 (Promega, Madison, WI, USA) as an internal standard through electroporation using a Neon Transfection System (Invitrogen, Carlsbad, CA, USA). All vector materials were provided by Professor Yuichiro Kanno at Toho University. Cells were treated with DTMB and each positive control compound for 24 h after overnight incubation. Cells were then harvested and resuspended in luciferase lysis buffer (Promega), followed by incubation on ice for 10 min. Cell debris was removed by centrifugation at 20,000 × g at 4 °C for 10 min, and the supernatants were used for luciferase assay. Using a dual-luciferase reporter assay system (Promega), luciferase activities were measured according to the manufacturer’s instructions. Experimental firefly luciferase activities were normalized against those of Renilla luciferase.

RAW 264.7 = assay: Cell viability assay (MTT), RAW 264.7; assay type: cell-based; conditions: 48 h
Experimental: (§1) Cell viability was measured by chromogenic assay involving the biological reduction of 3-(4,5-dimethyl-thiazol-2-yl)-2,5-diphenyltetrazoliumbromide (MTT) to formazan in living cells. Briefly, cells were seeded in 96-well plates in a final volume of 100 μL. After 24 h, the culture media were replaced with fresh media containing DTMB compounds, and the cells were cultured for another 48 h. Next, MTT (5 mg/mL in PBS) was added to the culture medium. The cells were incubated for 1 h in the dark at 37 °C, and the supernatant was then removed from the well. Total MTT solvent (4 mM HCl and 0.1% Nonidet P-40, both in isopropanol) was added to dissolve the formazan crystal, and absorbance was measured at 570 nm using a microplate reader Infinite 200 Pro NanoQuant microplate reader (TECAN, Switzerland).

HMO6 cell line = assay: Cell viability assay (MTT), HMO6; assay type: cell-based; conditions: 48 h
Experimental: as §1

5xFAD mice [1] = assay: Immunohistochemistry of Aβ plaques (6e10) in 5xFAD brain; assay type: in vivo; conditions: 10 mg/kg orally, 3 months, versus transgenic control
Experimental: (§2) DTMB was synthesized from Daejung Chemicals (Korea) and was dissolved in dimethyl sulfoxide (Sigma Aldrich, St. Louis, MO, USA) for cell-based experiments. To evaluate the effects of DTMB on 5xFAD mice, DTMB (10 mg/kg) and vehicle (1% carboxymethylcellulose and 10% DMSO) were orally administrated to four groups (wild-type, wild-type + DTMB, 5xFAD, and 5xFAD + DTMB) with a 6 day per week for 3 months.
Mice were perfused with ice-cold phosphate-buffered saline (PBS). Brain tissues were separately used for either molecular analysis or immunohistochemistry. The right hemisphere was fixed with 4% PFA and was transferred to a sucrose solution (30%) for 24 h. The right hemisphere was embedded and frozen in optimal cutting temperature compound on dry ice. Coronal Sections (18 μm thick) that included the hippocampus were cut and prepared on slide glasses. Tissue sections were then permeabilized and blocked using a blocking solution (5% goat serum and 0.2% Triton X-100 in PBS) for 1 h at room temperature. Primary antibody incubation was performed overnight at 4 °C using an anti-6e10 antibody (Biolegend, Japan, 1:100), anti-Iba1 antibody (Wako, Japan, 1:200), and anti-GFAP antibody (Abcam, Cambridge, UK, 1:200). […] Slides were counterstained in Hoechst and then mounted in fluorescence mounting medium (Dako, Denmark). […] Fluorescence was measured by calculating % area and was analyzed using ImageJ. […]

5xFAD mice [2] = assay: Soluble/insoluble Aβ extraction, western blot and filter-trap assay; assay type: in vivo; conditions: 10 mg/kg orally, 3 months
Experimental: as §2
To investigate soluble and insoluble Aβ components, two extraction steps were performed. Left hemisphere samples were homogenized in cold Tris-buffered saline (TBS consisting of 50 mM Tris-pH 7.5 and 150 mM NaCl) with a protease inhibitor cocktail (Thermo Fisher Scientific, Waltham, MO, USA) at a concentration of 100 mg/mL. After centrifugation at 15,000 rpm for 1 h at 4 °C, the supernatant of the samples was used to conduct western blotting. Insoluble protein was extracted from the pellet by dissolving in 5 M guanidine buffer (5 M guanidine HCl and 150 mM NaCl-pH 7.5). Soluble and insoluble protein samples were stored at −80 °C.
The insoluble fraction of protein lysates in 5xFAD mice was diluted in 1% SDS-PBS and boiled at 95 °C for 5 min. The membrane was pre-equilibrated with 1 × TBS. A dot blotter apparatus (Bio-Rad Laboratories, Hercules, CA, USA) was used for sample application, and 6e10 antibody was used to detect Aβ contents from brain lysates of 5xFAD mice treated with DTMB. […]

5xFAD mice [3] = assay: RT-qPCR of magnetically sorted adult microglia; assay type: in vivo; conditions: adult microglia sorted from 5xFAD mice
Experimental: as §2
To isolate the adult microglia from DTMB- or vehicle-treated 5xFAD mice brain, magnetic-activated cell sorting (MACs) system was used. Whole brain tissue was dissociated to a single cell level using gentleMACs dissociation kit (Miltenyi Biotech, Bergisch Gladbach, Germany) according to manufacturer’s instruction. To separate the immune cell fraction, 47% percoll gradient was applied to single cell mixture and centrifuged at 2,000 rpm for 10 min. Adult microglia was isolated by LS column after incubating with anti-CD11b MicroBeads (Miltenyi Biotech). Separated adult microglia were used to analyze the expression of genes related to microglia activation and inflammation by performing RT-PCR. Sample sizes were 3 mice per group.

relative luciferase activity (PPARδ; HEK293A, 24 h, various concentrations): increased luciferase activity
transactivation activity (luciferase) compared to positive control (PPARδ; versus positive control): lower than the positive controls
Aβ aggregates in the insoluble fraction (5xFAD mice [2]; 5xFAD mice brain lysates): decreased
SMILES: COc1ccc(-c2cc(=O)oc3c(C)c(OC(=O)[C@H](Cc4c[nH]c5ccccc45)NC(=O)OC(C)(C)C)ccc23)cc1 [DTMB]
cytotoxicity (MTT) (RAW 264.7): no cytotoxicity
cytotoxicity (MTT) (HMO6 cell line): no cytotoxicity
amount of Aβ aggregates in the hippocampus and cortex (5xFAD mice [1]): significantly decreased
amyloid beta monomer (5xFAD mice [2]; 5xFAD mice brain): not decreased
levels of microglial activation markers (Iba-1, Trem2, and Cd68) (5xFAD mice [3]): markedly decreased
levels of proinflammatory cytokines (Tnf-α, Il-6, and Il-1β) (5xFAD mice [3]): markedly decreased
